Test system: LPS-induced HaCaT cells
Assay: Anti-inflammatory and soothing experiment: inflammatory factors secreted by LPS-induced HaCaT cells (ELISA)
Type: cell-based
Conditions: inclusion at volume ratio of 0.3% (dexamethasone 50 µg/mL) with 50 µg/ml LPS, 24 h, supernatant, Mean ± SD, n = 3
Method: In vitro stimuli can activate toll-like receptors (TLR-2 and TLR-4) on keratinocytes, leading to the activation of MAPK and NF-κB pathways. Then, the keratinocytes produce IL-1, IL-6, IL-8, TNF-α, and human HBD-2 (defensins), which induces inflammation and causes skin discomfort. The anti-inflammatory effects of the inclusions in Examples 1 to 9 and Comparative Examples 1 to 9 were evaluated by using LPS-induced HaCaT cells as an inflammatory cell model in vitro and detecting inflammatory factors IL-la, […], and TNF-α secreted in cell supernatant by an ELISA kit.
The HaCaT cells were inoculated into a 12-well plate with a density of 2.0-3.0×10^5 cells/well, and incubated in an incubator at a temperature of 37±1° C. and a humidity of 90±5%. After the incubation, the culture plate was taken out, and the original culture solution in the well was discarded. In the sample group, 1 mL of test samples with a volume ratio of 0.3% and 50 µg/ml of LPS culture solution were added to each well; in the model group, only 50 µg/mL of LPS culture solution were added; in the positive control group, 1 mL of dexamethasone ([…]) and LPS ([…]) culture solution was added, while in the blank negative control group, 1 mL of culture solution was only added for culturing 24 h. The supernatant was collected by centrifugation and stored at −80° C. Cytokines of IL-la, […], and TNF-α were determined by using the method described in the ELISA kit, and signals were detected at a wavelength of 450 nm. The content of inflammatory factors was shown in Table 6 by the secretion amount (pg) of IL-i1α, IL-1β, and TNF-α contained in each mL of the culture solution, and triplicate wells were set for each test.

For C[C@@H]1C[C@H]2[C@@H]3CCC4=CC(=O)C=C[C@]4(C)[C@@]3(F)[C@@H](O)C[C@]2(C)[C@@]1(O)C(=O)CO [Dexamethasone, dexamethasone], the “IL-1α secretion amount in culture solution” value (model group 63.29 ± 0.39) was 36.30 ± 0.21 pg/mL, the “IL-1β secretion amount in culture solution” value (model group 66.29 ± 0.29) was 24.67 ± 0.65 pg/mL and the “TNF-α secretion amount in culture solution” value (model group 92.33 ± 2.25) was 77.27 ± 2.96 pg/mL.

— US20260060918A1, “HIGH-PERMEABILITY INCLUSION FOR SOOTHING SKIN REDNESS, HEAT, AND PAIN, AND PREPARATION METHOD AND USE THEREOF” (N.O.D TOPIA (GUANGZHOU) BIOTECHNOLOGY CO.,LTD., priority 2023, published 2026)
